Consider eleven compounds from patent US7868026B2, “Therapeutic compounds” (Pfizer Inc., priority 2005, dated 2011).

Where two headings read alike, the source gives them in different places.

What all share (format): biochemical
Experiment [1] concerns the target T1, CYP3A4 (Homo sapiens, UniProt P08684). In words: Determination of compound Kiapp against recombinant CYP3A4 enzyme (BFC fluorescent substrate). In outline: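 Recombinant CYP3A4 (5.5 or 8 nM, with or without b5 depending on source) pre-incubated with inhibitor ≥30 min at room temperature in 100 mM sodium phosphate pH 7.0, 5 mM TCEP, 2% DMF. Reaction started with 200 uM NADPH and 5 uM BFC; initial fluorescence rates over 5 min fitted to Morrison tight-binding (non-partial) or Szedlacsek (partial) equations for Kiapp.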

For experiment [2], the target named is T1, CYP3A4. Nature of the experiment: Determination of IC50 against CYP3A4 by measurement of inhibition of testosterone metabolism (human liver microsomes, 6-β-OH-testosterone by LC-MS/MS). Details: 0.1 mg/mL human liver microsomes. The conditions noted are these: read-out: IC50 (Testo.). In outline: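 Human liver microsomes (0.1 mg/mL) incubated with 25 μM testosterone and 1 mM NADPH in 100 mM potassium phosphate, pH 7.4, for eight minutes. 6-β-OH-testosterone measured by LC-MS/MS in MRM mode against an internal standard and quantified from a metabolite standard curve.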

For experiment [3], the target named is T1, CYP3A4. Nature of the experiment: Determination of IC50 against CYP3A4 by measurement of inhibition of midazolam metabolism (human liver microsomes, 1-hydroxymidazolam by LC-MS/MS). Set-up: 0.1 mg/mL human liver microsomes. The following applies: 2 μM midazolam, 0.1 mg/mL human liver microsomes. In outline: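 Human liver microsomes (0.1 mg/mL) incubated 8 min with 2 μM midazolam and 1 mM NADPH in 100 mM potassium phosphate, pH 7.4. 1-Hydroxymidazolam quantified by LC-MS/MS (MRM) as peak area ratio to internal standard against a metabolite standard curve.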
Background: Liver microsomes are a subcellular fraction often used to study metabolism.

The mark [4] stands for this setting: Baculo. enzyme preparation, read-out: Kiapp (BFC, Baculo.).
Where [5] appears, read: Super. enzyme preparation, read-out: Kiapp (BFC, Super.).

T1 sequence (P08684 whole entry): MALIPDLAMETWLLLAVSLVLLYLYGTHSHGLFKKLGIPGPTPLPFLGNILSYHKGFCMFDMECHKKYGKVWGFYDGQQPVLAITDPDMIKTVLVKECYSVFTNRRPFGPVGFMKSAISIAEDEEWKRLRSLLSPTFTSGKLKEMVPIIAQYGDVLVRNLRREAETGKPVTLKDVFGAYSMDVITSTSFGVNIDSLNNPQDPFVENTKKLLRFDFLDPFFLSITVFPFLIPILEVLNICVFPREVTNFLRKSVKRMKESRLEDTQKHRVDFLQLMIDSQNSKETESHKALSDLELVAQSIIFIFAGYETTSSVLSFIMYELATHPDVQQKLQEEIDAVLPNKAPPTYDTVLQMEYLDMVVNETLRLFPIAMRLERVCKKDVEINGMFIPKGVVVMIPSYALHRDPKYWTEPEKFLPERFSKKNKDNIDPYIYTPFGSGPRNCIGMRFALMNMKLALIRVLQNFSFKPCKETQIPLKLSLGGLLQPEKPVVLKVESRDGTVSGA

What is called IC50 is the point on the concentration scale where inhibition reaches its midpoint. In the case of `COCCNC(=O)c1ccccc1S(=O)(=O)Nc1cnccc1C` [Example 174, N-(2-methoxyethyl)-2-{[(4-methylpyridin-3-yl)amino]sulfonyl}benzamide], the Ki in experiment [1] (setting [4]) was above 1000 nM; in experiment [1] (setting [5]) it was 392 nM. In addition, the IC50 was found to be 356 nM in experiment [2] and 451 nM in experiment [3].
The corresponding values for `COC[C@H](C)NC(=O)c1ccccc1S(=O)(=O)Nc1cncc(OC)c1` [Example 382, N-[(1S)-2-methoxy-1-methylethyl]-2-{[(5-methoxypyridin-3-yl)amino]sulfonyl}benzamide] are 505 nM, 20.1 nM, 263 nM and 68 nM.
For `Cc1cncc(NS(=O)(=O)c2ccccc2C(=O)NCc2ccc(S(C)(=O)=O)cc2)c1` [Example 159, 2-{[(5-methylpyridin-3-yl)amino]sulfonyl}-N-[4-(methylsulfonyl)benzyl]benzamide], in that order: 751 nM, 144 nM, 129 nM and 64 nM.
On to `CC(C)(COCc1ccccc1)NC(=O)c1ccccc1S(=O)(=O)Nc1cccnc1` [Example 34, N-[2-(benzyloxy)-1,1-dimethylethyl]-2-[(pyridin-3-ylamino)sulfonyl]benzamide], for which, in experiment [1] (setting [4]), the Ki was above 1000 nM. For the same compound, the IC50 in experiment [2] and in experiment [3] was above 750 nM in each case.
Turning to `CCOc1cncc(NS(=O)(=O)c2ccccc2C(=O)NC2CC2)c1` [Example 301, N-cyclopropyl-2-{[(5-ethoxypyridin-3-yl)amino]sulfonyl}benzamide], the Ki in experiment [1] (setting [4]) came to 409 nM; in experiment [1] (setting [5]) it was 152 nM. Besides, the values for the IC50 in experiment [2] and in experiment [3] were above 750 nM and 140 nM, respectively.
As for `CN(CC1CCCC1)C(=O)c1ccccc1S(=O)(=O)Nc1cccnc1` [Example 324, N-(cyclopentylmethyl)-N-methyl-2-[(pyridin-3-ylamino)sulfonyl]benzamide], the Ki amounted to 85.1 nM in experiment [1] (setting [4]) and 21.7 nM in experiment [1] (setting [5]). Further, the figures for the 50% inhibitory concentration (IC50) in experiment [2] and in experiment [3] were 20 nM and 11 nM, respectively.
For `COc1cncc(NS(=O)(=O)c2ccccc2C(=O)N(C)CCc2ccccc2)c1` [Example 370, 2-{[(5-methoxypyridin-3-yl)amino]sulfonyl}-N-methyl-N-(2-phenylethyl)benzamide], in that order: 52.9 nM, 19 nM, 8 nM and 12 nM.
The corresponding values for `COc1cncc(NS(=O)(=O)c2ccccc2C(=O)NCc2ccc(F)cc2F)c1` [Example 212, N-(2,4-difluorobenzyl)-2-{[(5-methoxypyridin-3-yl)amino]sulfonyl}benzamide] are 20.3 nM, 6 nM, 8 nM and below 3 nM.
For `O=C(NCc1cccc(F)c1F)c1ccccc1S(=O)(=O)Nc1cccnc1` [Example 87, N-(2,3-difluorobenzyl)-2-[(pyridin-3-ylamino)sulfonyl]benzamide], in that order: 90 nM, 6.3 nM, 10 nM and 30 nM.
As to `COc1cncc(NS(=O)(=O)c2ccccc2C(=O)NC2CC3CCC2C3)c1` (stereo not shown) [Example 215, N-bicyclo[2.2.1]hept-2-yl-2-{[(5-methoxypyridin-3-yl)amino]sulfonyl}benzamide], the values for the Ki in experiment [1] (setting [4]) and in experiment [1] (setting [5]) were 216 nM and 43.3 nM, respectively. The IC50 was determined as 58 nM in experiment [2] and 25 nM in experiment [3].
The corresponding values for `CCOc1ccncc1NS(=O)(=O)c1ccccc1C(=O)NCCOC` [Example 217, 2-{[(4-ethoxypyridin-3-yl)amino]sulfonyl}-N-(2-methoxyethyl)benzamide] are 965 nM, 216 nM, 230 nM and 179 nM.
